Patent US10882856B2 (BeiGene, Ltd., priority 2017, dated 2021)
Structures can show the parent of a compound that is named as a salt.

Key:
[1] = target: T1, cellular TDO2 in HEK293-TDO2 cells (Homo sapiens, UniProt P48775); experiment: 293-TDO2 cell-based assay (Kyn colorimetric); conditions: 48 hours of incubation
T1 construct: expressed in transfected cells; host or cells: HEK293 (ATCC), stably transfected
Description: The inhibitory activity of TDO2 inhibitors is determined by using a colorimetric reaction to measure Kyn generated from L-Trp (L-Tryptophon) oxidation by cellular TDO2 in HEK293-TDO2 cells stably transfected with a plasmid expression of Tryptophan 2,3-dioxygenase (for short, 293-TDO2).
HEK293 cells were obtained from the American Type Culture Collection and 293-TDO2 were recovered in 10% FBS-containing phenol red-free DMEM medium. Cells were plated onto a 96-well plate (100 μl/well) at 10000 cells per well and kept at 37° C. in a humidified incubator supplied with 5% CO2. 4 hours later, Compounds at different concentrations diluted in dimethylsulfoxide (DMSO) were added to plate. Cells were kept at 37° C. in a humidified incubator supplied with 5% CO2. After 48 hours of incubation, 100 μl supernatant from each well was removed to a new plate. The protein in the medium was precipitated with the addition of 8 μl 6N trichloroacetic acid. The plate was incubated at 60° C. for 30 minutes and then centrifugation at 2500 rpm for 10 minutes to remove sediments. 80 μl supernatants were carefully removed to a new clean plate and added with an equal volume of 2% 4-(Dimethylamino) benzaldehyde (D2004, sigma) dissolved in glacial acetic acid. The absorbance at 480 nm wavelength derived from Kyn was measured using a PHERAstar FS plate reader (BMG LABTECH). The IC50 for each compound was derived from fitting the dose-response data to the four-parameter logistic model by using XLfit software (IDBS).

[2] = target: T2, IDO1 (Homo sapiens, UniProt P14902); experiment: IDO1 enzymatic assay; type: biochemical; parameters: His tag (N); made in house; host or cells: E. coli; conditions: read-out: Enzyme IC50 IDO1
T2 sequence (P14902 whole entry): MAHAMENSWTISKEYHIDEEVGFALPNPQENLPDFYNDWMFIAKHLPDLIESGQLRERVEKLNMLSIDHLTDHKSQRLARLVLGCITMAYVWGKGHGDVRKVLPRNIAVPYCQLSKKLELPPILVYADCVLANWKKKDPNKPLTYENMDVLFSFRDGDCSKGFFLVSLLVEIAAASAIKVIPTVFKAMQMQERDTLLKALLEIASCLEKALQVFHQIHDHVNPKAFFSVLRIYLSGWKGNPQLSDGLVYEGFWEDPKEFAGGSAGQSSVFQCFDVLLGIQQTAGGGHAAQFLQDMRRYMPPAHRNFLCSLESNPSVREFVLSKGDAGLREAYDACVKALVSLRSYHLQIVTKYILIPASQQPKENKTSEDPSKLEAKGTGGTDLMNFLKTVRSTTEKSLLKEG
In short: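 IC50 values reflect remaining IDO1 activity over increasing compound concentrations. The enzyme (50 nM, N-terminally His-tagged, purified from E. coli) was incubated for 1.5 hours at 24 °C with compound, 1.3 mM D-tryptophan, 5 mM L-ascorbic acid, methylene blue and 0.4 mg/mL catalase in 50 mM potassium phosphate pH 7.5 with 0.1% BSA. The slope of N'-formylkynurenine formation, read continuously at 321 nm for 1 hour, served as activity.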

[3] = target: T2, IDO1; experiment: Hela cell-based IDO1 assay; conditions: Hela cells
In short: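 HeLa cells were seeded at 8000 per well in 96-well plates in phenol red-free DMEM with 10% FBS. After 4 hours, DMSO-diluted compound dilutions were added with IFN-γ (final 100 ng/mL) and 0.4 mM L-Trp, and cells were kept 48 hours at 37 °C, 5% CO2. Supernatant was deproteinised with trichloroacetic acid, and kynurenine was measured at 480 nm after adding 2% 4-(dimethylamino)benzaldehyde. Potency came from four-parameter logistic fits in XLfit.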

T1 sequence (P48775 whole entry): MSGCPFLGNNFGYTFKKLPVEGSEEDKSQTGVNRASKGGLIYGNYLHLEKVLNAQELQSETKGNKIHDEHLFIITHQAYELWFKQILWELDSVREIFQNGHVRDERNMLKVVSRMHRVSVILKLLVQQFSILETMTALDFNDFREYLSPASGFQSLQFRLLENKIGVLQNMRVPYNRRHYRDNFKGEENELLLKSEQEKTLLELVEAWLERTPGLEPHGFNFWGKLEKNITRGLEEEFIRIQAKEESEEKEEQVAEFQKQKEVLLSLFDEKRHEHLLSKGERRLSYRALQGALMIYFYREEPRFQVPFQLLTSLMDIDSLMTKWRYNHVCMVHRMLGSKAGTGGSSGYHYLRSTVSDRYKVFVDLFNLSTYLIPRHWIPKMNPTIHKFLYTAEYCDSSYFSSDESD

| Structure (SMILES) | EC50 [1] [nM] | IC50 [2] [nM] | EC50 [3] [nM] |
| --- | --- | --- | --- |
| OC(c1c(C2CC2)ccc2cncn12)C1CCC(c2ccc(Cl)cc2)CC1 (centres unmarked) [Example D103, (4-(4-chlorophenyl)cyclohexyl)(6-cyclopropylimidazo[1,5-a]pyridin-5-yl)methanol] | > 10000 | 38 | 163 |
| O=Cc1ccc(C2CCC(C(O)c3c(C4CC4)ccc4cncn34)CC2)cc1 (centres unmarked) [Example D123, 4-(4-((6-cyclopropylimidazo[1,5-a]pyridin-5-yl)(hydroxy)methyl)cyclohexyl)benzaldehyde] | > 10000 | 54 | 462 |
| OC(c1c(C2CC2)ccn2cncc12)C1CCN(c2ccc(F)c3cccnc23)CC1 (single isomer, unassigned) [Example C155a] | > 10000 | 7500 | > 10000 |
| O[C@H](c1c(C2CC2)ccc2cncn12)[C@H]1CC[C@H](c2cc(F)cc(F)c2)CC1 (single isomer, unassigned) [Example D144a] | > 10000 | 23 | 52 |
| O[C@@H](c1c(C2CC2)ccc2cncn12)[C@H]1CC[C@H](c2ccc3ccccc3c2)CC1 (single isomer, unassigned) [Example D136b] | > 10000 | > 10000 | 7190 |
| CNC(=O)c1ccc([C@H]2CC[C@H]([C@@H](O)c3c(C4CC4)ccc4cncn34)CC2)cc1 (single isomer, unassigned) [Example D124b] | > 10000 | 970 | 5230 |
| O[C@@H](c1cc(Cl)cc2cncn12)[C@H]1CC[C@H](c2ccc(Cl)cc2)CC1 (single isomer, unassigned) [Example E101b] | > 10000 | 2800 | > 10000 |
| Oc1ccc(C2CCC(C(O)c3c(C4CC4)ccn4cncc34)CC2)cc1 (racemic) [Example C104] | > 10000 | 36 | 82 |
| O[C@@H](c1cc(Cl)cc2cncn12)[C@H]1CC[C@H](c2cccc3ccccc32)CC1 (single isomer, unassigned) [Example E103b] | > 10000 | 1400 | > 10000 |
| O[C@H](c1c(C2CC2)ccc2cncn12)[C@H]1CC[C@H](c2ccnc3ccc(F)cc32)CC1 (single isomer, unassigned) [Example D150a] | > 10000 | 16 | 18 |
| OC(c1c(C2CC2)ccc2cncn12)C1CCC(c2ccnc3ccc(F)cc23)CC1 (centres unmarked) [Example D150, (6-cyclopropylimidazo[1,5-a]pyridin-5-yl)(4-(6-fluoroquinolin-4-yl)cyclohexyl)methanol] | > 10000 | 36 | 37 |
| CC(C)c1ccc2cncn2c1[C@@H](O)[C@H]1CC[C@H](c2cccc(Cl)c2)CC1 (single isomer, unassigned) [Example D168a] | > 10000 | 17 | 25 |
| CC(C)c1ccc2cncn2c1[C@H](O)[C@H]1CC[C@H](c2cccc(F)c2)CC1 (single isomer, unassigned) [Example D167b] | > 10000 | 9800 | 2790 |
| O[C@@H](c1c(C2CC2)ccc2cncn12)[C@H]1CC[C@H](c2ccc(F)c(F)c2)CC1 (single isomer, unassigned) [Example D126b] | > 10000 | > 10000 | 6520 |
| O[C@@H](c1c(C2CC2)ccc2cncn12)[C@H]1CC[C@H](c2ccccc2Cl)CC1 (single isomer, unassigned) [Example D117b] | > 10000 | > 10000 | 99 |
| OC(c1c(C2CC2)ccc2cncn12)C1CCC(c2cccc(Cl)c2)CC1 (centres unmarked) [Example D116, (4-(3-chlorophenyl)cyclohexyl)(6-cyclopropylimidazo[1,5-a]pyridin-5-yl)methanol] | > 10000 | 44 | 107 |
| COc1cccc(C2CCC(C(O)c3c(C4CC4)ccc4cncn34)CC2)c1 (centres unmarked) [Example D143, (6-cyclopropylimidazo[1,5-a]pyridin-5-yl)(4-(3-methoxyphenyl)cyclohexyl)methanol] | > 10000 | 33 | 62 |

| Structure (SMILES) | EC50 [1] [nM] | IC50 [2] [nM] | EC50 [3] [nM] |
| --- | --- | --- | --- |
| NC(=O)c1ccc([C@H]2CC[C@H]([C@H](O)c3c(C4CC4)ccc4cncn34)CC2)cc1 [Example D153, 4-((1S,4r)-4-(S)-(6-cyclopropylimidazo[1,5-a]pyridin-5-yl(hydroxy)methyl)cyclohexyl)benzamide] | > 10000 | 11 | 145 |
| Oc1ccccc1[C@H]1CC[C@H]([C@@H](O)c2c(C3CC3)ccc3cncn23)CC1 (single isomer, unassigned) [Example D112b] | > 10000 | 1700 | > 10000 |
| O[C@H](c1c(C2CC2)ccc2cncn12)[C@H]1CC[C@H](c2ccccc2Cl)CC1 (single isomer, unassigned) [Example D117a] | > 10000 | 30 | 492 |
| COc1ccc([C@H]2CC[C@H](C(O)c3c(C4CC4)ccc4cncn34)CC2)c(F)c1 (single isomer, unassigned) [Example D146a] | > 10000 | 19 | 122 |
| O[C@@H](c1c(C2CC2)ccc2cncn12)[C@H]1CC[C@H](c2cccc(F)c2)CC1 (single isomer, unassigned) [Example D156b] | > 10000 | > 10000 | 6990 |
| OC(c1c(C2CC2)ccn2cncc12)C1CCC(c2cccc(F)c2)CC1 (racemic) [Example C109, (7-cyclopropylimidazo[1,5-a]pyridin-8-yl)(4-(3-fluorophenyl)cyclohexyl)methanol] | > 10000 | 87 | 100 |
| Oc1ccc(N2CCC(C(O)c3c(C4CC4)ccn4cncc34)CC2)cc1 (centres unmarked) [Example C143] | > 10000 | 130 | 1100 |
| O[C@H](c1cc(Cl)cc2cncn12)[C@H]1CC[C@H](c2ccc3ccccc3c2)CC1 (single isomer, unassigned) [Example E104a] | > 10000 | 29 | 3700 |
| COc1ccc([C@H]2CC[C@H](C(O)c3c(C4CC4)ccc4cncn34)CC2)cc1Cl (single isomer, unassigned) [Example D148b, hydrochloride] | > 10000 | > 10000 | 7010 |
| O=C(Nc1ccc(C2CCC(C(O)c3c(C4CC4)ccc4cncn34)CC2)cc1)OCc1ccccc1 (centres unmarked) [Example D121] | > 10000 | 73 | 606 |
| O=C(O)c1ccc([C@H]2CC[C@H]([C@@H](O)c3c(C4CC4)ccc4cncn34)CC2)cc1 (single isomer, unassigned) [Example D111b] | > 10000 | 1200 | > 10000 |
| N#Cc1ccc([C@H]2CC[C@H](C(O)c3c(C4CC4)ccn4cncc34)CC2)cc1 (single isomer, unassigned) [Example C106b] | > 10000 | 2300 | > 10000 |
| Nc1ccc([C@H]2CC[C@H]([C@H](O)c3c(C4CC4)ccc4cncn34)CC2)cc1 (single isomer, unassigned) [Example D122a] | > 10000 | 18 | 103 |
| O[C@H](c1c(C2CC2)ccc2cncn12)C1CCN(c2ccc(Cl)c3ncccc23)CC1 (single isomer, unassigned) [Example D178a] | > 10000 |  | 9.7 |
| OC(c1c(C2CC2)ccn2cncc12)C1CCC(c2ccc(F)c(F)c2)CC1 (centres unmarked) [Example C131, (7-cyclopropylimidazo[1,5-a]pyridin-8-yl)(4-(3,4-difluorophenyl)cyclohexyl)methanol] | > 10000 | 110 |  |
| OC(c1c(C2CC2)ccc2cncn12)[C@H]1CC[C@H](c2cccc(F)c2F)CC1 (single isomer, unassigned) [Example D132b] |  | 7500 | > 10000 |
| O[C@H](c1c(C2CC2)ccc2cncn12)C1CCN(c2ccccc2)CC1 (single isomer, unassigned) [Example D170a] | > 10000 |  | 22 |
